Entries after “also recorded” stand apart in the source; their conditions may differ.
Tests used:
[1] = system: renal fibrosis, adenine-induced CKD mice; assay: renal fibrosis in adenine CKD mice (trichrome, immunoblot, RT-qPCR); assay type: in vivo, mouse
Experimental: FIGS. 3A-3C. SK-124 treatment reduces fibrosis in adenine-induced chronic kidney disease. (A) Representative trichrome stained sections from the indicated groups. Darker staining indicates fibrosis which is increased in vehicle-treated adenine diet mice and reduced by SK-124 treatment. (B) Kidney protein lysates were isolated and analyzed by immunoblotting for alpha-smooth muscle actin (αSMA) (top) and GAPDH (bottom). (C) Whole kidney RNA from the indicated groups was analyzed by RT-qPCR for the indicated fibrosis marker.
7-week-old female CD1 mice were obtained from Charles River Laboratories (Wilmington, MA) and were fed on 0.2% adenine containing diet (TD.130900; 0.2% Adenine, 0.9% Phosphate, 0.5% Calcium; Envigo) or control diet (TD. 96348) for 6 or 8 weeks to induce chronic kidney disease (CKD). Mice were oral gavaged with 40 mg/kg SK-124, or intraperitonially injected with 80 μg/kg PTH, or treated with vehicle 5 days a week for the duration of the special diet.
cDNA was prepared using Primescript RT kit (Takara Inc), with 750 ng RNA per reaction. RT-qPCR was performed by using PerfeCa® SYBR® Green FAstMix® ROX (Quanta bio) in the StepOnePlus™ Real-time PCR System (Applied Biosystems). Hmbs was used as a control housekeeping gene for mouse samples, and B-Actin was used for organoids, relative expression was calculated (2^-deltaCT method) and compared to the mean of control group if necessary. Primers used for RT-qPCR are listed in Table 2 (mouse primers) and Table 3 (human primers).
Snap-frozen kidneys were homogenized in NP-40 lysis buffer (FNN0021, Thermo) with using TissueLyserII at 30 Hz for 5 minutes. Samples were rotated at 4 deg for 20 minutes and frozen on dry ice and thawed. After centrifuging for 30 minutes at 4 deg, the supernatants were collected. After determining the protein concentration by Bradford assay, […] of protein was loaded for western blotting. For KGli cells, the cells were washed with cold PBS then scraped into TNT buffer (Tris-NaCl-Tween buffer, 20 mM Tris-HCl pH 8, 200 mM NaCl, 0.5% Triton X-100 containing 1X-protease inhibitor cocktail (Bimake Inc. 100X, Cat. #B14001), 1 mM DTT, 1 mM NaF, 1 mM Vanadate (New England Biolabs)). Next, samples were vortexed for 1 minute and centrifuged at 14,000g for 6 minutes at 4 deg, and the supernatant was collected.
For immunoblotting, the lysates were separated by SDS-PAGE (Bio-rad precast gels), and proteins were transferred to the nitrocellulose membranes. Then, the membranes were blocked in 5% milk in tris-buffered saline plus 0.05% Tween-20 (TBST) and incubated with primary antibody in 5% BSA-TBST overnight at 4° C. Next day, after washing, membranes were incubated with anti-rabbit HRP-coupled secondary antibody (1:2500, Cell Signaling Technology, 7074S) or anti-mouse HRP-coupled secondary antibody (1:2500, Cell Signaling, 7076S), and signals were detected with SuperSignal West Femto Maximum Sensitivity Substrate (Thermo scientific) using the iBright imager (ThermoFisher). The antibodies used are: SIK2 (1:1000, Cell Signaling, 6919), GAPDH (1:1000, Cell Signaling, 2118), αSMA (1:1000, Invitrogen, 14-9760-82), pSMAD3 (1:1000, Cell Signaling, 9520), and SMAD⅔ (1:1000, Cell Signaling, 8685).
Hematoxylin and eosin (H+E) staining was performed on some sections using standard protocols and Masson's Trichome stain for fibrosis was performed according to the manufacturer's instructions (ab150686, abcam). Formalin-fixed paraffin embedded sections were also used for in situ hybridization according to the manufacturer instructions (ACDbio). Briefly, the sections were blocked with hydrogen peroxide for 10 minutes at room temperature, followed by antigen retrieval with Pepsin (R2283, Sigma-Aldrich) in humidified chamber in 40° C. HybEZ oven. The Sik1 (526411, ACD), Sik2 (526421, ACD), or Sik3 (526431, ACD) probe was added to the sections for 2 hours in the humidified chamber at 40° C. Then, the signal was amplified (322310, ACD) and detected using Brown DAB kit (322310, ACD). […]

[2] = system: kidney cell clusters; assay: single cell RNA-sequencing of dissociated kidneys, adenine CKD mice; assay type: in vivo, mouse; conditions: SK-124 vs vehicle, adenine diet
Experimental: FIGS. 6A-6F. The effects of SK-124 treatment at the transcriptomic level in adenine-induced mouse chronic kidney disease. RNA-seq was performed on whole kidney RNA samples (n=7/group) from FIG. 1. Volcano plot show gene regulated (>2-fold change, p(adj)<0.05) by CKD (versus control diet, A) or in CKD by SK-124 (versus vehicle control, B). In Volcano plot, representative fibrosis markers (Col3a1, Vim, Serpinel) and proximal tubule integrity (Lrp2. Atplai, and Hnf4a) are shown. Scatterplot (C) and heatmap (D) showing integration of individual RNA-seq comparisons. […] (E) Single cell RNA-sequencing was performed on dissociated kidneys from adenine diet fed mice treated with vehicle or SK-124 (n=4/group). […] (F) Relative cellularity of each annotated cluster is shown in pie chart format for adenine+vehicle (CKD-Veh) or adenine+SK-124 (CKD-SK-124) mice.
To perform single cell RNA sequencing, mouse kidneys were harvested and immediately dissociated in liberase TH (Millipore Sigma, 05401135001) at 37 degrees for 1 hour at 600 rpm. After removing red blood cells using red blood cell lysis buffer (Sigma, R7757), the cells were further dissociated in Accumax (Stemcell Technologies, 7921) and submitted to MGH Department of Molecular Biology for gel beads in emulsion (GEM) formation and subsequent single cell RNA sequencing using the 10× Genomics Chromium 3′ droplet-based sequencing platform. The CellRanger toolkit (v6.0.2) by 10× Genomics was used to 1) align the sequencing reads to the mouse reference transcriptome (mm10). 2) quantify gene expression, resulting in gene-by-cell UMI count matrices, and 3) aggregate all samples into a single feature barcode matrix containing all the data for downstream analysis. All single cell data analysis was performed in the R software environment for statistical computing and graphics using the package Seurat.

SMILES: CCc1nnc(-c2c(OC)cc(-c3cnc4cc(-c5cnn(C)c5)ccn34)cc2OC)o1 [SK-124, 2-[2,6-Dimethoxy-4-[7-(1-methylpyrazol-4-yl)imidazo[1,2-a]pyridin-3-yl]phenyl]-5-ethyl-1,3,4-oxadiazole]
- fibrosis (trichrome staining) ([1]; adenine diet, SK-124 40 mg/kg oral, 40 mg/kg): reduced fibrosis
- αSMA protein ([1]; kidney lysates, immunoblot): reduced
- Colla1 mRNA ([1]; whole kidney RNA, RT-qPCR): reduced
- Vimentin (Vim) mRNA ([1]; whole kidney RNA, RT-qPCR): reduced
- αSMA mRNA ([1]; whole kidney RNA, RT-qPCR): reduced
- fibroblast cluster cellularity [2]: reduces fibroblast cluster cellularity
- injury markers (failed repair proximal tubule cells, fibroblasts, and myofibroblasts) [2]: reduced injury markers
- numbers of healthy proximal tubule (epithelial) cells [2]: increases numbers of healthy epithelial cells; also recorded: increased numbers of healthy proximal tubule cells

— patent US20260306463A1, “SIK INHIBITORS TO TREAT CHRONIC KIDNEY DISEASE” (The General Hospital Corporation, priority 2023, published 2026)
